Experimental data: patent US20250228239A1, “MOLECULES HAVING PESTICIDAL UTILITY, AND INTERMEDIATES, COMPOSITIONS, AND PROCESSES, RELATED THERETO” (priority 2024, published 2025)
Where two headings read alike, the source gives them in different places.

Assays:
Format in all cases: in vivo
[1] = tested on: Cabbage Looper (Trichoplusia ni, TRIPNI); assay: Bioassays on Cabbage Looper (CL), 128-well diet tray assay; conditions: Trichoplusia ni, read-out: CL
Outline: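 Each of eight wells receives artificial diet treated at 50 μg/cm^2 with the test molecule, then one to five second-instar larvae. Incubation runs five to seven days at 25° C with a 14:10 light-dark cycle under vented covers. Mortality is scored per well as a percentage and averaged.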

[2] = tested on: Beet Armyworm (Spodoptera exigua, LAPHEG); assay: Bioassays on Beet Armyworm (BAW), 128-well diet tray assay; conditions: Spodoptera exigua, read-out: BAW
Outline: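 Diet-overlay assay: 50 μg/cm^2 compound applied in 90:10 acetone-water to artificial diet, allowed to dry, then infested with 1–5 L2 larvae/well; 8 wells/compound; covered, vented; 25° C., 14:10 L:D, 5–7 d; % mortality per well, averaged.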

[3] = tested on: Yellow Fever Mosquito (Aedes aegypti, AEDSAE)
Outline: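 Compounds from 4000 ppm DMSO stocks were diluted in 90:10 water/acetone and dispensed into wells, then infested with about 1-day-old larvae in liver-powder water. Covered plates were held at room temperature for 3 days and each well was scored for mortality against a rating scale; six replicate plates per compound.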

[4] = tested on: Green Peach Aphid (Myzus persicae, MYZUPE); assay: Bioassays on Green Peach Aphid (GPA), foliar spray on cabbage seedlings; conditions: 72 h, read-out: GPA
Outline: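 Percent control (Abbott-corrected versus solvent-sprayed plants) comes from live-aphid counts three days after treatment at about 25° C. Test solution at 200 ppm was sprayed to runoff onto both leaf surfaces of cabbage seedlings infested a day earlier with 20-50 aphids; four replicate pots.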

[5] = Table ABC: Biological Results, species CL
[6] = Table ABC: Biological Results, species BAW
[7] = Table ABC: Biological Results, species YFM
[8] = Table ABC: Biological Results, species GPA
[9] = Yellow Fever Mosquito, rating class
[10] = Green Peach Aphid, rating class

Structure (SMILES)	pest or weed control at 50 µg/cm2 [1, 5] [%]	pest or weed control at 50 µg/cm2 [2, 6] [%]	YFM [3, 7]	pest or weed control at 200 µg/mL [4, 8] [%]	pest or weed control at 50 µg/cm2 ([1]; Cabbage Looper, rating class) [%]	pest or weed control at 50 µg/cm2 ([2]; Beet Armyworm, rating class) [%]	YFM [3, 9]	pest or weed control at 200 µg/mL [4, 10] [%]
O=C(Nc1ccc(F)c(NC(=O)C(F)(F)C(F)(F)F)c1F)c1cc(NC(=O)[C@H]2[C@H](c3ccc(Cl)c(Cl)c3)C2(Cl)Cl)ccc1Cl [F1251, 2-Chloro-5-((1R,3R)-2,2-dichloro-3-(3,4-dichlorophenyl)cyclopropane-1-carboxamido)-N-(2,4-difluoro-3-(2,2,3,3,3-pentafluoropropanamido)phenyl)benzamide]	50 to 100	50 to 100	A (80–100)	0 to 80	–	–	–	–
CCOC(C)C(=O)Nc1c(F)ccc(NC(=O)c2cc(NC(=O)[C@H]3[C@H](c4ccc(F)c(C(F)(F)F)c4)C3(Cl)Cl)ccc2Cl)c1F (stereo partly drawn) [F1364, 2-Chloro-5-((1R,3R)-2,2-dichloro-3-(4-fluoro-3-(trifluoromethyl)phenyl)cyclopropane-1-carboxamido)-N-(3-(2-ethoxypropanamido)-2,4-difluorophenyl)benzamide]	50 to 100	50 to 100	A (80–100)	0 to 80	–	–	–	–
CCC(=O)Nc1c(F)ccc(NC(=O)c2cc(NC(=O)[C@H]3[C@H](c4ccc(F)c(C(F)(F)F)c4)C3(Cl)Cl)ccc2Cl)c1F [F1371, 2-Chloro-5-((1R,3R)-2,2-dichloro-3-(4-fluoro-3-(trifluoromethyl)phenyl)cyclopropane-1-carboxamido)-N-(2,4-difluoro-3-propionamidophenyl)benzamide]	50 to 100	50 to 100	A (80–100)	0 to 80	–	–	–	–
CN(C(=O)C(F)F)c1c(F)ccc(NC(=O)c2cc(NC(=O)[C@H]3[C@H](c4ccc(F)c(C(F)(F)F)c4)C3(Cl)Cl)ccc2Cl)c1F [F1386, 2-Chloro-5-((1R,3R)-2,2-dichloro-3-(4-fluoro-3-(trifluoromethyl)phenyl)cyclopropane-1-carboxamido)-N-(3-(2,2-difluoro-N-methylacetamido)-2,4-difluorophenyl)benzamide]	50 to 100	50 to 100	A (80–100)	0 to 80	–	–	–	–
CN(C(=O)C(F)F)c1c(F)ccc(NC(=O)c2cc(NC(=O)[C@H]3[C@H](c4ccc(F)c(Cl)c4)C3(Cl)Cl)ccc2Cl)c1F [F1460, 2-Chloro-5-((1R,3R)-2,2-dichloro-3-(3-chloro-4-fluorophenyl)cyclopropane-1-carboxamido)-N-(3-(2,2-difluoro-N-methylacetamido)-2,4-difluorophenyl)benzamide]	–	–	–	–	50 to 100	50 to 100	A (80–100)	80 to 100
O=C(Nc1ccc(F)cc1)c1c(Cl)ccc(NC(=O)[C@H]2[C@H](c3ccc(F)c(Cl)c3)C2(Cl)Cl)c1F [F1465, 6-chloro-3-((1R,3R)-2,2-dichloro-3-(3-chloro-4-fluorophenyl)cyclopropane-1-carboxamido)-2-fluoro-N-(4-fluorophenyl)benzamide]	–	–	–	–	50 to 100	50 to 100	A (80–100)	80 to 100
CCCC(=O)Nc1c(F)ccc(NC(=O)c2cc(NC(=O)[C@H]3[C@H](c4ccc(Cl)c(Cl)c4)C3(Cl)Cl)ccc2Cl)c1F [F1473, N-(3-Butyramido-2,4-difluorophenyl)-2-chloro-5-((1R,3R)-2,2-dichloro-3-(3,4-dichlorophenyl)cyclopropane-1-carboxamido)benzamide]	–	–	–	–	50 to 100	50 to 100	A (80–100)	0 to 80
CCCCC(=O)Nc1c(F)ccc(NC(=O)c2cc(NC(=O)[C@H]3[C@H](c4ccc(Cl)c(Cl)c4)C3(Cl)Cl)ccc2Cl)c1F [F1474, 2-Chloro-5-((1R,3R)-2,2-dichloro-3-(3,4-dichlorophenyl)cyclopropane-1-carboxamido)-N-(2,4-difluoro-3-pentanamidophenyl)benzamide]	–	–	–	–	50 to 100	50 to 100	A (80–100)	0 to 80
O=C1CC(C(=O)Nc2c(F)ccc(NC(=O)c3cc(NC(=O)[C@H]4[C@H](c5ccc(Cl)c(Cl)c5)C4(Cl)Cl)ccc3Cl)c2F)C1 [F1475, 2-Chloro-5-((1R,3R)-2,2-dichloro-3-(3,4-dichlorophenyl)cyclopropane-1-carboxamido)-N-(2,4-difluoro-3-(3-oxocyclobutane-1-carboxamido)phenyl)benzamide]	–	–	–	–	50 to 100	50 to 100	A (80–100)	0 to 80
CC(Br)C(=O)Nc1c(F)ccc(NC(=O)c2cc(NC(=O)[C@H]3[C@H](c4ccc(F)c(C(F)(F)F)c4)C3(Cl)Cl)ccc2Cl)c1F (stereo partly drawn) [F1479, N-(3-(2-Bromopropanamido)-2,4-difluorophenyl)-2-chloro-5-((1R,3R)-2,2-dichloro-3-(4-fluoro-3-(trifluoromethyl)phenyl)cyclopropane-1-carboxamido)benzamide]	–	–	–	–	50 to 100	50 to 100	A (80–100)	0 to 80
CC(C)C(=O)Nc1c(F)ccc(NC(=O)c2cc(NC(=O)[C@H]3[C@H](c4ccc(F)c(C(F)(F)F)c4)C3(Cl)Cl)ccc2Cl)c1F [F1483, 2-Chloro-5-((1R,3R)-2,2-dichloro-3-(4-fluoro-3-(trifluoromethyl)phenyl)cyclopropane-1-carboxamido)-N-(2,4-difluoro-3-isobutyramidophenyl)benzamide]	–	–	–	–	50 to 100	50 to 100	A (80–100)	0 to 80
COCCC(=O)Nc1c(F)ccc(NC(=O)c2cc(NC(=O)[C@H]3[C@H](c4ccc(F)c(C(F)(F)F)c4)C3(Cl)Cl)ccc2Cl)c1F [F1489, 2-Chloro-5-((1R,3R)-2,2-dichloro-3-(4-fluoro-3-(trifluoromethyl)phenyl)cyclopropane-1-carboxamido)-N-(2,4-difluoro-3-(3-methoxypropanamido)phenyl)benzamide]	–	–	–	–	50 to 100	50 to 100	A (80–100)	0 to 80
O=C(Nc1ccc(F)c(NC(=O)C(F)(F)F)c1F)c1cc(NC(=O)[C@H]2[C@H](c3ccc(Cl)c(Cl)c3)C2(Cl)Cl)ccc1F [F1492, 5-((1R,3R)-2,2-Dichloro-3-(3,4-dichlorophenyl)cyclopropane-1-carboxamido)-N-(2,4-difluoro-3-(2,2,2-trifluoroacetamido)phenyl)-2-fluorobenzamide]	–	–	–	–	50 to 100	50 to 100	A (80–100)	0 to 80
O=C(Nc1ccc(F)c(NC(=O)C(F)(F)F)c1F)c1cc(NC(=O)[C@H]2[C@H](c3ccc(F)c(C(F)(F)F)c3)C2(Cl)Cl)ccc1F [F1529, 5-((1R,3R)-2,2-Dichloro-3-(4-fluoro-3-(trifluoromethyl)phenyl)cyclopropane-1-carboxamido)-N-(2,4-difluoro-3-(2,2,2-trifluoroacetamido)phenyl)-2-fluorobenzamide]	–	–	–	–	50 to 100	50 to 100	A (80–100)	0 to 80
C[C@H]1CC[C@@H](C(=O)Nc2c(F)ccc(NC(=O)c3cc(NC(=O)[C@H]4[C@H](c5ccc(F)c(C(F)(F)F)c5)C4(Cl)Cl)ccc3Cl)c2F)O1 [F1612, (2S,5S)-N-(3-(2-Chloro-5-((1R,3R)-2,2-dichloro-3-(4-fluoro-3-(trifluoromethyl)phenyl)cyclopropane-1-carboxamido)benzamido)-2,6-difluorophenyl)-5-methyltetrahydrofuran-2-carboxamide]	–	–	–	–	50 to 100	50 to 100	A (80–100)	0 to 80
CC(=O)Nc1c(F)cc(F)c(NC(=O)c2cc(NC(=O)[C@H]3[C@H](c4ccc(F)c(C(F)(F)F)c4)C3(Cl)Cl)ccc2Cl)c1F [F1613, N-(3-Acetamido-2,4,6-trifluorophenyl)-2-chloro-5-((1R,3R)-2,2-dichloro-3-(4-fluoro-3-(trifluoromethyl)phenyl)cyclopropane-1-carboxamido)benzamide]	–	–	–	–	50 to 100	50 to 100	A (80–100)	80 to 100
CN(C(=O)C(F)(F)C(F)(F)F)c1c(F)ccc(NC(=O)c2cc(NC(=O)[C@H]3[C@H](c4ccc(Cl)c(Cl)c4)C3(Cl)Cl)ccc2Cl)c1F [F1615, 2-Chloro-5-((1R,3R)-2,2-dichloro-3-(3,4-dichlorophenyl)cyclopropane-1-carboxamido)-N-(2,4-difluoro-3-(2,2,3,3,3-pentafluoro-N-methylpropanamido)phenyl)benzamide]	–	–	–	–	50 to 100	50 to 100	A (80–100)	0 to 80
